This note sets out measurements from US20250388575A1, “HETEROBIFUNCTIONAL COMPOUNDS AND METHODS OF TREATING DISEASE” (Halda Therapeutics OpCo, Inc., priority 2022, published 2025).

The target in assay [1] is progesterone receptor ligand binding domain (LBD) (Homo sapiens (Human), UniProt P06401). In words: FP assay for binding affinity to progesterone receptor (PolarScreen Progesterone Receptor Competitor Assay). The conditions noted are these: GST-tagged PR LBD, Fluormone tracer, fluorescence polarization, 2 hours at room temperature. As to the method:
Compounds were tested using the PolarScreen™ Progesterone Receptor Competitor Assay Kit (Life Technologies Cat #A15905 or a15906), as per the manufacturer's instructions. Briefly, GST-tagged PR LBD, Fluormone tracer, and compound were mixed and incubated for 2 hours at room temperature in the dark. Following incubation, the plates were spun at 3000×g for 30 seconds, then sealed with an optical adhesive cover, and fluorescence polarization was measured using appropriate excitation and emission filters with an EnVision Plate Reader (Perkin Elmer). Compound concentration vs. mP value were plotted in Prism (GraphPad). A four-parameter non-linear regression curve fit was applied to dose-response data to determine the half-maximal inhibitory concentration (IC50) for each test compound.

Assay [2] relates to T47D cells. In words: Cellular growth inhibition assay for T47D cells, CellTiter-Glo. It is filed as cell-based, human. The settings on record: 72 hours treatment, CellTiter-Glo 2.0. In a few lines: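 Luminescence from CellTiter-Glo 2.0 after 72 h of compound exposure gives the viability signal. Cells grew in insulin-supplemented (0.2 units/mL) DMEM with 10% FBS and were treated one day after seeding at 0.5% DMSO. GI50 values come from four-parameter nonlinear regression.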
Background: ATP-based viability assays read luminescence as a measure of living cells.

The test system of assay [3] is T-Rex 293 cell line SC cells having increased expression of progesterone receptor isoform B protein. In words: Cellular growth inhibition, T-Rex 293 SC cells with increased progesterone receptor isoform B expression (doxycycline), CellTiter-Glo. The format is cell-based. The conditions noted are these: progesterone receptor isoform B induced with 10 ng/mL doxycycline, 72 hours. Here is the method: (§1) The following types of cells were prepared for this experiment: (i) a T-Rex 293 cell line having increased expression of progesterone receptor isoform B protein due to exposure to doxycycline and (ii) a T-Rex 293 cell line lacking increased expression of progesterone receptor isoform B protein. Ability of the test compounds to inhibit proliferation of the foregoing cell types was evaluated according to the procedures set forth below.
(§2) The doxycycline-inducible progesterone receptor isoform B protein expressing cell line was established using the following protocol: T-Rex 293 cells were purchased from Invitrogen (Cat #R71007) and transfected using Lipofectamine 2000 with the wild-type progesterone receptor B protein sequence cloned into the pcDNA4/TO vector. Transfected cells were selected using 400 μg/mL Zeocin (Invitrogen Cat #R25001). Following selection, single clones were raised and maintained in Dulbecco's Modified Eagle Medium (DMEM) supplemented with 10% w/w Tetracycline-free fetal bovine serum (FBS) and 250 μg/mL Zeocin. Clones were analyzed for expression of progesterone receptor isoform B protein in the presence and absence of 10 ng/ml doxycycline (Sigma Cat #D9891), and a single doxycycline-inducible clone (hereinafter “SC”) was selected for use in downstream assays.
(§3) The SC cells were seeded on poly-D-lysine coated, black clear-bottom 384-well plates at 2500/well, in 25 μL Phenol Red Free Dulbecco's Modified Eagle Medium (DMEM) supplemented with 10% w/w charcoal-dextran treated fetal bovine serum (FBS) and 1% w/w pen-strep, with or without 10 ng/mL doxycycline. Pen-Strep is a commercially available mixture of penicillin G and streptomycin, which is used in mammalian cell culture media to prevent bacterial contamination. Phenol Red Free Dulbecco's Modified Eagle Medium (DMEM) supplemented with 10% w/w charcoal-dextran treated fetal bovine serum (FBS) and 1% w/w pen-strep, with or without 10 ng/mL doxycycline is herein referred to as Treatment Medium. Following seeding of cells in the plates, the plates were spun at 300×g for 30 seconds, then equilibrated to room temperature for 30 minutes, and then deposited in a humidified tissue culture incubator maintained at 37° C. with 5% CO2.
(§4) At 24 hours after seeding of the cells, dilutions of test compound were prepared in DMSO and dissolved in Treatment Medium, to achieve a final DMSO concentration of 0.5% w/w, thereby providing the Test Compound Solution. A 25 μL aliquot of the Test Compound Solution was added to cells in the well plates. An equal volume of a solution containing DMSO and Treatment Medium was used as a negative control. Following treatment of cells with Test Compound Solution or said equal volume of a solution containing DMSO and Treatment Medium, the plates were spun at 300×g for 30 seconds, and then left in an incubator for 72 hours.
(§5) At the end of the treatment duration, cell viability was quantified with CellTiter-Glo 2.0 reagent (Promega Cat #G9243). For this purpose, plates were equilibrated to room temperature for 30 minutes, and then 25 μL of CellTiter-Glo 2.0 reagent was added to cells in the plate wells. Plates were then agitated on a shaker for two minutes at 500 rpm and subsequently incubated at room temperature for 10 minutes. Following incubation, the plates were spun at 3000×g for 30 seconds, then sealed with an optical adhesive cover, and luminescence readings were measured with an EnVision Plate Reader (Perkin Elmer).
(§6) Data was normalized using zero luminescence for baseline. A four-parameter non-linear regression curve fit was applied to dose-response data in GraphPad Prism data analysis software to determine the half-maximal growth inhibitory concentration (GI50) for each test compound.

Assay [4] deals with T-Rex 293 cell line SC cells lacking increased expression of progesterone receptor isoform B protein. In words: Cellular growth inhibition, T-Rex 293 SC cells lacking increased progesterone receptor isoform B expression (no doxycycline), CellTiter-Glo. The format is cell-based. The conditions noted are these: T-Rex 293 SC cells not exposed to doxycycline, 72 hours. Here is the method:
as §1, §2, §3, §4, §5, §6

Assay [5] addresses androgen receptor (Homo sapiens, UniProt P10275). In words: Assay for binding affinity to androgen receptor ([3H]methyltrienolone radioligand, cell cytosol). The settings on record: binding to the androgen receptor, 1 nM [3H]methyltrienolone, 24 hr at 4° C. Here is the method: Fractions of cell cytosol (106 cell/point) were incubated for 24 hr at 4° C. with 1 nM [^3H]methyltrienolone in the absence or presence of the test compound in a buffer containing 25 mM Hepes-Tris (pH 7.4), 1 mM EDTA, 10 mM Na2MoO4, 2 mM DTT, 5 µM triamcinolone acetonide, and 10% glycerol. Nonspecific binding was determined in the presence of 1 μM testosterone. Following incubation, the samples were filtered rapidly under vacuum through glass fiber filters (GF/B, Packard) presoaked with 0.3% PEI and rinsed several times with ice-cold 50 mM Tris-HCl using a 96-sample cell harvester (Unifilter, Packard). The filters were dried then counted for radioactivity in a scintillation counter (Topcount, Packard) using a scintillation cocktail (Microscint 0, Packard). The results are expressed as a percent inhibition of the control radioligand specific binding. The standard reference compound is testosterone, which is tested in each experiment at several concentrations to obtain a competition curve from which its IC50 is calculated.

progesterone receptor ligand binding domain (LBD), sequence (P06401 679-913): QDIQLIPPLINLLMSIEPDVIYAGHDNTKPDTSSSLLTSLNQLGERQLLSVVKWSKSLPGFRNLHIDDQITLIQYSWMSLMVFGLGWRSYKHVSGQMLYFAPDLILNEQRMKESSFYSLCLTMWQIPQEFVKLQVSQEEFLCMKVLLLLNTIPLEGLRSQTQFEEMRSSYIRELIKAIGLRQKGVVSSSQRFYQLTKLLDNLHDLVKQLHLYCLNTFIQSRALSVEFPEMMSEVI
androgen receptor, sequence (P10275 whole entry, looked up): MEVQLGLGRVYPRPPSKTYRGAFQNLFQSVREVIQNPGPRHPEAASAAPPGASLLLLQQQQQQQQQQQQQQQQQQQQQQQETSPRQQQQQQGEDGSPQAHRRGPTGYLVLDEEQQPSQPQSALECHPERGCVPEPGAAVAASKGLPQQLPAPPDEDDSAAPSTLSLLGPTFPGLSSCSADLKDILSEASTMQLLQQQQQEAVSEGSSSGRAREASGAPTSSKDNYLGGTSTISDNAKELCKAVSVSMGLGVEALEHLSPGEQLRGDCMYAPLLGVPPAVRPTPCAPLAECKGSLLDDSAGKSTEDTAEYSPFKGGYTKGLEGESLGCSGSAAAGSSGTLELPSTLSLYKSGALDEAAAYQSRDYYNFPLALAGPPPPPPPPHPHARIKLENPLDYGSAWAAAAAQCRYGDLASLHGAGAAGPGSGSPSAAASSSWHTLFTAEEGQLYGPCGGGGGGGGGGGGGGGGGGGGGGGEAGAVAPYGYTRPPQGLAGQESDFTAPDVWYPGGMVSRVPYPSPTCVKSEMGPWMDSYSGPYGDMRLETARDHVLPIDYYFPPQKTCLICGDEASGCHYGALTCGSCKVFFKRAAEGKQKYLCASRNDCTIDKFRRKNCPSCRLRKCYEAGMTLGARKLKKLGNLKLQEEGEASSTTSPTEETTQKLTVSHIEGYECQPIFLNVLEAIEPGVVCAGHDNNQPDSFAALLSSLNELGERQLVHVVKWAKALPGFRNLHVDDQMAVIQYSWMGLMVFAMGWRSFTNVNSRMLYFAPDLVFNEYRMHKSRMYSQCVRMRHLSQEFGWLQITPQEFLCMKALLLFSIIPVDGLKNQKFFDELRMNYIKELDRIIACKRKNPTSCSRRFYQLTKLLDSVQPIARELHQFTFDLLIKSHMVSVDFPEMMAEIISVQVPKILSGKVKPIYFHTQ

The IC50 is the concentration at which inhibition is half-maximal. A low value points to greater potency. What is called GI50 is the concentration at which growth is held to half of that of the control. `CCS(=O)(=O)c1ccc(Oc2cccc(CCCC3CCN(c4ccc(C(=O)N[C@H]5CC[C@H](Oc6ccc(C#N)c(Cl)c6)CC5)nn4)CC3)c2F)c(-c2cn(C)c(=O)c3[nH]ccc23)c1` [I-52]: the IC50 in assay [1] is 50 to 500 nM. Also, the 50% growth inhibitory concentration (GI50) in assay [2] was less than 500 nM.
In the case of `CCS(=O)(=O)c1ccc(Oc2cc(F)c(CCC3CCN(c4ccc(C(=O)N[C@H]5CC[C@H](Oc6ccc(C#N)c(Cl)c6)CC5)nn4)CC3)cc2F)c(-c2cn(C)c(=O)c3[nH]ccc23)c1` [I-59], the results for the concentration for 50% growth inhibition (GI50) in assay [3], in assay [4] and in assay [2] were less than 500 nM, 500 to 1500 nM and less than 500 nM, respectively.
In the case of `CCS(=O)(=O)c1ccc(Oc2cccc(CCCOC3CC4(C3)CN(c3ccc(C(=O)N[C@H]5CC[C@H](Oc6ccc(C#N)c(Cl)c6)CC5)nn3)C4)c2F)c(-c2cn(C)c(=O)c3[nH]ccc23)c1` [I-46], the 50% growth inhibitory concentration (GI50) in assay [3], in assay [4] and in assay [2] (Homo sapiens) was less than 500 nM in each case.
Consider `Cn1cc(-c2cc(C(C)(C)O)ccc2O[C@H]2C[C@H](N(C)CC3CCN(c4ccc(C(=O)N[C@H]5CC[C@H](Oc6ccc(C#N)c(Cl)c6)CC5)nn4)CC3)C2)c2cc[nH]c2c1=O` [I-158, N-((1r,4r)-4-(3-chloro-4-cyanophenoxy)cyclohexyl)-6-(4-((((1r,3r)-3-(4-(2-hydroxypropan-2-yl)-2-(6-methyl-7-oxo-6,7-dihydro-1H-pyrrolo[2,3-c]pyridin-4-yl)phenoxy)cyclobutyl)(methyl)amino)methyl)piperidin-1-yl)pyridazine-3-carboxamide], for which the IC50 in assay [1] lay within 500 to 2500 nM. In addition, the GI50 in assay [2] (Homo sapiens) is less than 500 nM.
With `Cn1cc(-c2cc(C(C)(C)O)ccc2Oc2c(F)cc(CCOC3CCN(c4ccc(C(=O)N[C@H]5CC[C@H](Oc6ccc(C#N)c(Cl)c6)CC5)nn4)CC3)cc2F)c2cc[nH]c2c1=O` [I-109], in assay [1], the IC50 fell in the range of 50 to 500 nM. In assay [2] (Homo sapiens), this molecule had a concentration for 50% growth inhibition (GI50) of less than 500 nM.
As to `CCS(=O)(=O)Nc1ccc(Oc2cccc(OCCOC3CCN(c4ccc(C(=O)N[C@H]5CC[C@H](Oc6ccc(C#N)c(Cl)c6)CC5)nn4)CC3)c2)c(-c2cn(C)c(=O)c3[nH]ccc23)c1` [I-1, N-[4-(3-chloro-4-cyano-phenoxy)cyclohexyl]-6-[4-[2-[3-[4-(ethylsulfonylamino)-2-(6-methyl-7-oxo-1H-pyrrolo[2,3-c]pyridin-4-yl)phenoxy]phenoxy]ethoxy]-1-piperidyl]pyridazine-3-carboxamide], the GI50 in assay [3], in assay [4] and in assay [2] (Homo sapiens) was less than 500 nM in each case. The same molecule yielded an IC50 in assay [1] of 500 to 2500 nM.
Usually Kd stands for the free concentration of one partner at which half of the binding sites on the other are occupied at equilibrium, for simple one-to-one binding. Lower therefore signals a tighter complex. In assay [5], `Cn1cc(-c2cc(C(C)(C)O)ccc2Oc2ccc(CCC3CCN(c4ccc(C(=O)N[C@H]5CC[C@H](Oc6ccc(C#N)c(Cl)c6)CC5)nn4)CC3)cc2)c2cc[nH]c2c1=O` [I-102] came in with a Kd of 50 to 500 nM. Also, the GI50 in assay [3] and in assay [4] was less than 500 nM each time.
As for `Cn1cc(-c2cc(C(C)(C)O)ccc2Oc2ccc(OC3CN(c4ccc(C(=O)N[C@H]5CC[C@H](Oc6ccc(C#N)c(Cl)c6)CC5)nn4)C3)cc2)c2cc[nH]c2c1=O` [I-95, N-[4-(3-chloro-4-cyano-phenoxy)cyclohexyl]-6-[3-[4-[4-(1-hydroxy-1-methyl-ethyl)-2-(6-methyl-7-oxo-1H-pyrrolo[2,3-c]pyridin-4-yl)phenoxy]phenoxy]azetidin-1-yl]pyridazine-3-carboxamide], the GI50 in assay [3] is less than 500 nM; in assay [4] it was less than 500 nM; in assay [2] (Homo sapiens), 500 to 1500 nM.
As to `CCS(=O)(=O)c1ccc(Oc2cccc(CCC3CCN(c4ccc(C(=O)N[C@H]5CC[C@H](Oc6ccc(C#N)c(Cl)c6)CC5)nn4)CC3)c2F)c(-c2cn(C)c(=O)c3[nH]ccc23)c1` [I-51], the IC50 in assay [1] lay in the range of 50 to 500 nM. Moreover, the GI50 in assay [2] (Homo sapiens) is less than 500 nM.
